Among the data in PubChem BioAssay AID651579 (Sanford-Burnham Center for Chemical Genomics, 2012) are IC50 values, retold here.

Activity calls are given as the source filed them. No rule for the calls is given here. Where only a bound is given, the exact number is not on record here.

This assay has as its system C. elegans hsp-16.2 reporter, heat-shock counterscreen. Put plainly: inhibitors of heat-induced hsp-16.2 expression – whole organism, C. elegans, counter-screen for SKN-1 inhibitor project, dose response (AID 651579). On the technique in general: Counterscreens check selectivity or assay interference.
The term IC50 denotes the concentration that gives 50% inhibition. For `CCN(CC)Cc1ccc(NC(=O)c2sc3cc(Cl)ccc3c2Cl)cc1`, the IC50 is > 64 µM (inactive).

Take `CCc1ccc(-c2nc(-c3ccncc3)no2)cc1`: the half-maximal inhibitory concentration (IC50) was 33.5 µM.

`O=[N+]([O-])c1ccc(NCc2ccc(Cl)cc2)nc1`: the IC50 was > 64 µM (inactive). Turning to `COc1cc(CNC2CCCC2)cc(Cl)c1OCc1ccc(F)cc1`, the IC50 is 42.7 µM. Under `O=C(N=C1N=C2C=CC(Br)=CN2Cc2ccccc21)c1ccc([N+](=O)[O-])cc1[N+](=O)[O-]` stands > 64 µM (inactive). Turning to `N=C1C=CC(=C(c2ccc(N)cc2)c2ccc(N)cc2)C=C1`, the IC50 was > 64 µM (inactive). As for `O=c1cc(-c2ccc(F)cc2)oc2ccccc12`, the IC50 is > 64 µM (inactive). As for `c1ccc2sc(SCc3ccc(-c4nnco4)cc3)nc2c1`, the figure is > 64 µM (inactive); as for `O=[N+]([O-])c1ccc(OCc2cnc(Cl)s2)cc1`, 42.3 µM. Under `O=C(Nc1ccc(OC(F)F)c(Cl)c1)c1ccccn1` stands > 64 µM (inactive); under `O=C(Nc1ccc(Cl)cn1)c1ccccc1F`, > 64 µM (inactive); under `O=C(Nc1nc(-c2ccc(Cl)s2)cs1)c1ccccc1`, 22.6 µM. For `Fc1ccc(Cn2nnc(-c3ccc(CN4CCOCC4)cc3)n2)cc1`, the 50% inhibitory concentration (IC50) is 4.88 µM. As for `C=CCSc1ncc(-c2ccccc2)cn1`, the IC50 is > 64 µM (inactive). As for `c1ccc(-c2nc3cc4ccccc4cc3[nH]2)nc1`, the IC50 is 5.91 µM. Regarding `Clc1ccc(-c2nnc(-c3ccco3)o2)cc1`, the IC50 was 2.68 µM. In the case of `O=C(CC(O)(C(F)(F)F)C(F)(F)F)Nc1ccc(Cl)c(Cl)c1`, the IC50 was > 64 µM (inactive). Regarding `COc1cc(CNC(C)(C)CO)cc(Br)c1OCc1ccc(Cl)cc1`, the IC50 is > 64 µM (inactive). As to `CCc1nc2c(OCc3ccc(C(F)(F)F)cc3)cccn2c1N(C)C(=O)c1ccncc1`, the IC50 was 49.9 µM. As for `c1ccc(-c2ccc(-n3ccnc3)cc2)cc1`, the IC50 was 48.4 µM. Under `Cc1nc2ccccc2cc1OCc1ccc(F)cc1` stands > 64 µM (inactive); under `Cc1oc(-c2ccc(-c3ccccc3)cc2)nc1CN(C)C1CCOC1` (stereo unspecified), > 64 µM (inactive). In the case of `Fc1ccc(COc2ccc(-c3nnco3)cc2)c(Cl)c1`, the IC50 is > 64 µM (inactive). Under `CCCn1nc2cc(C(=O)NCc3ccc(OC(F)(F)F)cc3)ccc2c1OCC` stands > 64 µM (inactive); under `CCOc1cc(CNC2CCCC2)cc(Cl)c1OCc1ccccc1`, > 64 µM (inactive); under `CCOC(=O)c1c(-c2ccc(-c3ccccc3)cc2)csc1NC(=O)CNCCN(C)C`, > 64 µM (inactive).

Consider `CCOc1ccc(-c2nc(-c3cccnc3)no2)cc1`, for which the IC50 was > 64 µM (inactive). Regarding `O=C(/C=C/c1ccc(Cl)cc1)Nc1ccc(CN2CCOCC2)cc1`, the IC50 is > 64 µM (inactive).

As to `O=C(/C=C/Nc1ccc(Br)cc1F)c1ccco1`, the IC50 is > 64 µM (inactive). `O=C(NCc1ccncc1)c1ccc(-c2ccc(F)c(F)c2)c2ccoc12`: the IC50 is > 64 µM (inactive). For `CN1CCN(c2ccc(NC(=O)c3ccc(Oc4ccccc4)cc3)cc2)CC1`, the IC50 is > 64 µM (inactive).
